Experiments:
[1] = [14C] PLAG radioactivity in blood and lymph fluid; format: in vivo, rats; conditions: single oral [14C] PLAG
Description: Quantification of PLAG in blood and lymph fluid was performed in Mitsubishi Chemical Medicine Corporation (Japan) by radioactivity analysis. [^14C] PLAG was synthesized by the LSI Medience Corporation (Kumamoto, Japan). The specific activities were 348.9 kBq/mg. The purity of the compound was 99.7%. The pharmacokinetics of [^14C] PLAG were determined in Crl: CD (SD) rats (Charles River Laboratories Japan, Inc.). Rats received [^14C] PLAG at 100 mg/5 mL/kg (dosing radioactivity: 5 MBq/kg) via the oral route. To determine radioactivity concentration in lymph fluid, the abdominal large thoracic duct-cannulated animals were fitted with collars while under isoflurane anesthesia and were subjected to the administration at least 30 minutes after collar fitting. […] Each of the collected samples was measured for radioactivity. Blood was collected from the subclavian vein and used to determine the radioactivity. […] Radioactivity was measured by LSC (Tri-Carb 2300TR. Perkin Elmer, Inc) with the tSIE (transformed spectral index of external standard) method for the quenching correction.
Quantification of PLAG in blood and lymph fluid was performed in Mitsubishi Chemical Medicine Corporation (Japan) by radioactivity analysis. […] PLAG were determined in Crl: CD (SD) rats (Charles River Laboratories Japan, Inc.). […] PLAG at 100 mg/5 mL/kg (dosing radioactivity: 5 MBq/kg) via the oral route. […]

[2] = Cumulative excretion of radioactivity after single oral administration; format: in vivo, rats
Description: Excretion of PLAG at a single oral administration of 50 mg/kg BW to rats was examined in Mitsubishi Chemical Medicine Corporation (Japan) by radioactivity analysis. After oral administration of a single dose of 50 mg/kg, animals were individually accommodated in glass metabolic cages (Metabolica Model MC-CO2). Spontaneously excreted urine, feces, and radioactive molecules expired from each animal were collected. Sampling time points are 0-24, 24-48, 48-72 hours after administration. Then radioactivity and the excretion ratios and amount of radioactivity were determined. Radioactivity was measured by LSC (Tri-Carb 2300TR. Perkin Elmer, Inc) with the tSIE (transformed spectral index of external standard) method for the quenching correction.

[3] = test system: MIP2 and CXCL8 in BMDM and THP-1; assay: Gemcitabine-induced MIP-2 / CXCL8, RT-PCR and ELISA; format: cell-based; conditions: dose-dependent
Text: Total RNA was extracted using the Total RNA Extraction Solution (Favorgen, Taiwan), according to the manufacturer's instructions. This RNA was used in reverse transcription reactions with oligo-dT primers and M-MLV RT reagents (Promega, Madison, Wis., USA), according to the manufacturer's instructions. For RT-PCR, the synthesized cDNA was mixed with 2×PCR Master Mix (Solgent, Daejeon, Republic of Korea) and 10 pmol specific PCR primer pair following the manufacturer's protocol. […] An SYBR Green kit (Applied Biosystems, Foster City, Calif., USA) was used for real-time PCR (qPCR) analysis of cDNA according to the manufacturer's instructions. […] The relative expression levels of target genes were calculated by the 2^-ΔΔCT relative quantification method. […] The concentration of MIP-2 was measured using ELISA kits for MIP-2 (R&D Systems, Minneapolis, Minn., USA according to the manufacturers' instructions. Cytokine levels were estimated by interpolation from a standard curve generated using an ELISA reader (Molecular Devices) at 450 nm. Total RNAs from cells were isolated using TRIzol® reagent (Invitrogen, CA, USA) according to the manufacturer's instructions. RT-PCR was performed using PCR reagent (Bioassay, Daejeon, South Korea). […]

[4] = test system: intracellular ROS in BMDMs and THP-1 cells; assay: Gemcitabine-induced intracellular ROS measurement; format: cell-based; conditions: gemcitabine 10 μg/mL 3 h, dose-dependent
Description: A total of 1×10^6 BMDMs and THP-1 were seeded, cultured, and subsequently exposed to various concentrations of PLAG with gemcitabine (10 μg/mL) for 3 h. The cells were then incubated with the ROS-sensitive probe CM-H2DCFDA (Invitrogen™) for 30 min at 37° C. in the dark. After incubation, the cells were washed 3 times with PBS and immediately analyzed using FACS verse (BD biosciences) with an excitation/emission peak at 495/527 nm. A total of 10,000 cells were counted in each determination, and results presented are means±S.E. of three independent experiments. Intracellular ROS production was also measured with a confocal laser scanning microscope (Zeiss LSM 800, Oberkochen, Germany). After incubating CM-H2DCFDA as above, the cells were fixed with 4% paraformaldehyde for 30 min and washed 3 times with PBS before photographing. The excitation and emission wavelengths were identical as described above, and a minimum of 5 random fields was captured for each culture.

Structure (SMILES): CCCCC/C=C\C/C=C\CCCCCCCC(=O)OC(COC(C)=O)COC(=O)CCCCCCCCCCCCCCC (racemic) [PLAG, 1-palmitoyl-2-linoleoyl-3-acetylglycerol]
- PLAG in lymphatic vessel versus blood vessel [1]: More PLAG was detected in the lymphatic vessel than blood vessel
- time of highest concentration ([1]; blood and lymph fluid): 8 h
- dosed radioactivity excreted into expired air ([2]; 50 mg/kg oral, by 24 hours): 71.0%
- dosed radioactivity excreted into feces ([2]; 50 mg/kg oral, by 24 hours): 3.0%
- dosed radioactivity excreted into urine ([2]; 50 mg/kg oral, by 24 hours): 1.9%
- total recovery of radioactivity ([2]; 50 mg/kg oral, by 24 hours): 75.9%
- PLAG administered degraded and metabolized ([2]; within 24 hours): approximately 76%
- gemcitabine-induced chemokines MIP2 and CXCL8, transcriptional and secreted protein level [3]: effectively reduced
- gemcitabine-induced intracellular ROS production [4]: effectively reduced
